Measurements reported in article PMC7982320 (Pharmacology Research & Perspectives, 2021).
“Also recorded” adds a separate entry of the source.

Columns and labels:
Type in all cases: in vitro ADME
[1] = biological target: human MDR1 (Homo sapiens, UniProt P08183); assay: Transporter substrate assay, MDCKII‐MDR1 monolayer bidirectional transport; conditions: MDR1 ML; for Maximum net ER: maximum seen at 1 and 5 µM, n = 3
[2] = biological target: T1, human MATE1 (Homo sapiens, UniProt Q96FL8); assay: Uptake transporter substrate assay; conditions: MATE1 UPT; for Maximum fold accumulation over control: maximum seen at 1 µM and 2 min, n = 3
T1 sequence (Q96FL8 1-570): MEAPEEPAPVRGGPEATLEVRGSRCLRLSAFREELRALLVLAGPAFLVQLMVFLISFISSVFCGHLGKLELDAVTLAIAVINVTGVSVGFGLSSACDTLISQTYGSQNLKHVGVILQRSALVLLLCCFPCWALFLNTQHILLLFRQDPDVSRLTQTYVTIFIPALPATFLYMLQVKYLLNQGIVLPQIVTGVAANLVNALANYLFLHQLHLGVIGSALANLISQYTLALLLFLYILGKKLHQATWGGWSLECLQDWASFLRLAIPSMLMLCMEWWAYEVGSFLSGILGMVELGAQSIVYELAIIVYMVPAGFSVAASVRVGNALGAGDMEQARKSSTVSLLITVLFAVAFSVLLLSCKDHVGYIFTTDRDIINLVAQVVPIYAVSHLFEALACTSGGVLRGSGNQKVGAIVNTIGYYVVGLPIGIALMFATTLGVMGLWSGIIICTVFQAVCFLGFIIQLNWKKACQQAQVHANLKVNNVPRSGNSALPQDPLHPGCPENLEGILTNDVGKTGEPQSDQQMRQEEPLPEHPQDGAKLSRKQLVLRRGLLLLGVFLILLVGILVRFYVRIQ

[3] = biological target: T2, human OAT1 (Homo sapiens, UniProt Q4U2R8); assay: Uptake transporter substrate assay; conditions: OAT1 UPT; for Maximum fold accumulation over control: maximum seen at 2.5 µM and 20 min, n = 3
T2 sequence (Q4U2R8 1-563): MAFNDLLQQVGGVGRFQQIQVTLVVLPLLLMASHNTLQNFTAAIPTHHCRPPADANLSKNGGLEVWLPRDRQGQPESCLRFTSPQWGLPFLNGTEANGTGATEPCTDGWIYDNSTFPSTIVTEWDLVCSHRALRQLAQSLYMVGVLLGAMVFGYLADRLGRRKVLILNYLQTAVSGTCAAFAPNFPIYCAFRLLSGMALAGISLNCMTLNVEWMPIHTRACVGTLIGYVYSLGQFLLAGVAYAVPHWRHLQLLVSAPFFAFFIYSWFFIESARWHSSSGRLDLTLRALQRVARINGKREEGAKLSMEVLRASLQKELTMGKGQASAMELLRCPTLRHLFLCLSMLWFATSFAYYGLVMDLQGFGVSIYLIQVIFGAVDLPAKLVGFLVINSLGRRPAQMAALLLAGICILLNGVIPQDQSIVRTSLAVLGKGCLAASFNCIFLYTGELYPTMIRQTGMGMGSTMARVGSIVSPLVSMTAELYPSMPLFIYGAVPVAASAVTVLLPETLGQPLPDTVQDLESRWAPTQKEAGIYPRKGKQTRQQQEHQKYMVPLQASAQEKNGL

[4] = biological target: T3, human OAT3 (Homo sapiens, UniProt Q8TCC7); assay: Uptake transporter substrate assay; conditions: OAT3 UPT; for Maximum fold accumulation over control: maximum seen at 5 µM and 20 min, n = 3
T3 sequence (Q8TCC7 1-542): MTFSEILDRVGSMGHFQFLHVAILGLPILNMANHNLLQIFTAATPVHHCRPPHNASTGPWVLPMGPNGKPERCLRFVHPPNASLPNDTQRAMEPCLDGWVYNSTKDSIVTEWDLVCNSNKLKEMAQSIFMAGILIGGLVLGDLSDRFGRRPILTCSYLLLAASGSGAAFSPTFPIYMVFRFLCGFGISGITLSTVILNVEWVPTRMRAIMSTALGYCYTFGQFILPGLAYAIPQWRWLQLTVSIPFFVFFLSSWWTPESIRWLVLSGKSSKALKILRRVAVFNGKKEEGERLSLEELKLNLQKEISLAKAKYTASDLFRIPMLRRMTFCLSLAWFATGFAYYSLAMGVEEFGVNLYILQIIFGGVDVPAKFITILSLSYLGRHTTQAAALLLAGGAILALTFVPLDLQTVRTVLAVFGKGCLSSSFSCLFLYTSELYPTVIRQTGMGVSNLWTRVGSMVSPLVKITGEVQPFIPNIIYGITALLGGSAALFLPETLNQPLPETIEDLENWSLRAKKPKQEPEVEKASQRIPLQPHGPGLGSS

[5] = biological target: T4, human OCT2 (Homo sapiens, UniProt O15244); assay: Uptake transporter substrate assay; conditions: OCT2 UPT; for Maximum fold accumulation over control: maximum seen at 1 µM and 20 min, n = 3
T4 sequence (O15244 1-555): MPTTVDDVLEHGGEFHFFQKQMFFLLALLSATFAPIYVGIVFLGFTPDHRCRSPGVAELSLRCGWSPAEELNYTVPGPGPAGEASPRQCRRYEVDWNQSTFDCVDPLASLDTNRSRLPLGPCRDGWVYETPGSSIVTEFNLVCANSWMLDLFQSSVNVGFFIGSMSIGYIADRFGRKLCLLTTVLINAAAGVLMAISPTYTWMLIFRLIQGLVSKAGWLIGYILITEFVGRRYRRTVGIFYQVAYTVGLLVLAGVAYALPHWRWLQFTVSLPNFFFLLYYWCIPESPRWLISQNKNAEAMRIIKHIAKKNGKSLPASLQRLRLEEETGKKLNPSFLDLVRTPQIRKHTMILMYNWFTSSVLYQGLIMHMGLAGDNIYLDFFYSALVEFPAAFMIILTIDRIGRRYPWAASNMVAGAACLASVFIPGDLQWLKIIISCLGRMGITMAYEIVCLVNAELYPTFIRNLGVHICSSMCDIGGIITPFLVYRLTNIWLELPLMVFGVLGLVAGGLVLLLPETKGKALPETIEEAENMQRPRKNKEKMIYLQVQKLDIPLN

[6] = listed as 6β‐hydroxy‐21‐desacetyl deflazacort

human MDR1, sequence (P08183 whole entry): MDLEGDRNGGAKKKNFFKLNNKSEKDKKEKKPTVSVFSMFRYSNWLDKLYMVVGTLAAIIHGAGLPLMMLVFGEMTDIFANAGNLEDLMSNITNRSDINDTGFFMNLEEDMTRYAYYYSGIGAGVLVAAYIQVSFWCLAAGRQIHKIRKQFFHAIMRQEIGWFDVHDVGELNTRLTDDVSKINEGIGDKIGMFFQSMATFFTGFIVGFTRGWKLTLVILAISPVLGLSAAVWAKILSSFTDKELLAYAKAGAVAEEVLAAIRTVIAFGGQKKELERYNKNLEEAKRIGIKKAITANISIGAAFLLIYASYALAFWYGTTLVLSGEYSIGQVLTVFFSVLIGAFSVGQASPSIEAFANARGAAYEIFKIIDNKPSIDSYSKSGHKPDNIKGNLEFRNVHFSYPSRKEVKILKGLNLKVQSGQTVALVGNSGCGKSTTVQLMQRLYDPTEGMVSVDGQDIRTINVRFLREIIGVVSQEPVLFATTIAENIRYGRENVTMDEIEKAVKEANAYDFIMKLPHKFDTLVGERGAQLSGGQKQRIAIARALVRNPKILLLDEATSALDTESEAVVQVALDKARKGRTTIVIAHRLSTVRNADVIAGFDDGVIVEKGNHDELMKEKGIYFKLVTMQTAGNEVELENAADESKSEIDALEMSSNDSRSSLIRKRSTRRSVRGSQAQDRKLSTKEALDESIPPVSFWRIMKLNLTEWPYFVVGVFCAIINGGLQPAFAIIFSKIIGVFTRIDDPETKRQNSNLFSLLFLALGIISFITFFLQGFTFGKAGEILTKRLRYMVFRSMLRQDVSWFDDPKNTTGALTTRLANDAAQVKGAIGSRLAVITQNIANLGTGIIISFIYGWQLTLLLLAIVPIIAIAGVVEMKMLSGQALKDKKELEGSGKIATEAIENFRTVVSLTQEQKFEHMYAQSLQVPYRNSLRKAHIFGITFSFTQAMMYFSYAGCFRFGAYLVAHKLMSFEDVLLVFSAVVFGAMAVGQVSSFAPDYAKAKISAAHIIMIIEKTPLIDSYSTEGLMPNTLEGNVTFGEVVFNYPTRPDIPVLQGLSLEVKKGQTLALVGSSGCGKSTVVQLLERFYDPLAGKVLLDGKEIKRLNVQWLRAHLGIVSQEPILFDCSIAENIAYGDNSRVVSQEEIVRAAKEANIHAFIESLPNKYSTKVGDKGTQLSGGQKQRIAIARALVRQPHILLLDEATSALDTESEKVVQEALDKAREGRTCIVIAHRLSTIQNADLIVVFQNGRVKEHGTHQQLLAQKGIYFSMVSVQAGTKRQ

Row | Molecule | Substrate potential [1] | Substrate potential [1, 6] | Maximum net ER [1] | Substrate potential [2] | Substrate potential [2, 6] | Maximum fold accumulation over control [2] | Substrate potential [3] | Substrate potential [3, 6] | Maximum fold accumulation over control [3] | Substrate potential [4] | Fold accumulation over control, without inhibitor (inhibitor experiment) ([4]; before inhibitor‐reduced accumulation) [fold] | Substrate potential [4, 6] | Maximum fold accumulation over control [4] [fold] | Substrate potential [5] | Substrate potential [5, 6] | Maximum fold accumulation over control [5] | Fold accumulation over control, in the presence of OAT3 inhibitor ([4]; with inhibitor probenecid) [fold]
1 | CC1=N[C@]2(C(=O)CO)[C@@H](C[C@H]3[C@@H]4C[C@@H](O)C5=CC(=O)C=C[C@]5(C)[C@H]4[C@@H](O)C[C@@]32C)O1 [6β‐OH‐21‐desDFZ, 6β‐Hydroxy‐21‐desacetyl deflazacort] | not a substrate | No | 0.59 at 1 and 5 µM | not a substrate | No | 1.18 at 1 µM and 2 min fold | not a substrate | No | 1.15 at 2.5 µM and 20 min fold | appeared to be an in vitro substrate; also recorded: in vitro substrate for human OAT3 | 1.75 | Yes | 2.71 | not a substrate | No | 1.32 at 1 µM and 20 min fold | 
2 | [2’-^14C]-6β-hydroxy-21-desacetyl-deflazacort [^14C‐6β‐OH‐21‐desDFZ] |  |  | 0.59 |  |  | < 2 fold |  |  | < 2 fold | is an OAT3 substrate in vitro |  |  | 2.71 |  |  | < 2 fold | 1.08
